Target: ATP-dependent translocase ABCB1 (Homo sapiens, UniProt P08183)
Sequence (P08183 whole entry): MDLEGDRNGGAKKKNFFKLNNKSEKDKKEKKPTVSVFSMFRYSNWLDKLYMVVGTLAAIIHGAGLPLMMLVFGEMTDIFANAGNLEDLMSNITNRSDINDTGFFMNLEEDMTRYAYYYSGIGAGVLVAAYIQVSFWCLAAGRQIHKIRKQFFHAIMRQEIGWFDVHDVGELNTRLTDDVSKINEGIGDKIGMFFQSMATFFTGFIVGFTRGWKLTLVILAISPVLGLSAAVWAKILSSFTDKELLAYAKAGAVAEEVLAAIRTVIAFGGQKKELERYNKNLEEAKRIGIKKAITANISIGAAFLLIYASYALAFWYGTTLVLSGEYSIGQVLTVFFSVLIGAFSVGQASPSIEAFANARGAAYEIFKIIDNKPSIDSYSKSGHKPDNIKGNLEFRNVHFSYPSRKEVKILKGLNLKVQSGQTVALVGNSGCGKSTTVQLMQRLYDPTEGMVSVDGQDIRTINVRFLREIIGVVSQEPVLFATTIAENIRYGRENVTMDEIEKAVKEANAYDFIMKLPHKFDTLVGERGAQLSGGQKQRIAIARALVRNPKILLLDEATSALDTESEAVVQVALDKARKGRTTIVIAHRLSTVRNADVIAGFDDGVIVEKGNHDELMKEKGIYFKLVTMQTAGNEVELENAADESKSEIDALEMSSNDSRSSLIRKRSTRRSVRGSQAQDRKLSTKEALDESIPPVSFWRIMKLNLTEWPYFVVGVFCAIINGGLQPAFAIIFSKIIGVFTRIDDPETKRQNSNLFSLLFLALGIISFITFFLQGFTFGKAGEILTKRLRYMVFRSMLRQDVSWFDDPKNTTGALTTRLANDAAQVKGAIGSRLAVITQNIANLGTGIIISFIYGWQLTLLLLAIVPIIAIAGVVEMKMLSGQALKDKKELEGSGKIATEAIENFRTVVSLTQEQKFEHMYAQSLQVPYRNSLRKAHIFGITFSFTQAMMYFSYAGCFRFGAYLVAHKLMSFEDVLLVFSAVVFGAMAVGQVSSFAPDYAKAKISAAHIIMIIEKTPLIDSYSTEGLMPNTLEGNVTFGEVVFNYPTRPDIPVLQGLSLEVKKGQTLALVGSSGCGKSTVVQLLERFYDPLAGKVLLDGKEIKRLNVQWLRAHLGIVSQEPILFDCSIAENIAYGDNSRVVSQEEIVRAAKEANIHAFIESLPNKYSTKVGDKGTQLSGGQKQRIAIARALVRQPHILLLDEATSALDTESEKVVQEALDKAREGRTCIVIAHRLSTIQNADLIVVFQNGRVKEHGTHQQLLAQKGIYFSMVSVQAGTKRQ

Question: With `Cc1ccc(-c2n[nH]c3c2[C@@H](c2ccc(N(C)C)cc2)C(C#N)=C(N)O3)cc1` as the molecule, how does the EC50 read?
Answer: 3090 nM

Question: Which EC50 does the source give for `O=C(CCc1cccc2ccccc12)c1ccccc1OC[C@H](O)CN1CCN(c2ccc(F)cc2)CC1` here?
Answer: 17.8 nM

Question: Which EC50 does the source give for `O=C(c1ccccc1)c1ccc(OC[C@H](O)CN2CCOCC2)cc1` here?
Answer: 5370 nM

Question: How did the EC50 turn out when `O=C(c1ccccc1)c1ccc(OC[C@H](O)CN2CCCCC2)cc1` was run?
Answer: 2190 nM

Question: How did the EC50 turn out when `CCC(=O)c1ccc(OC[C@H](O)CN(C(C)C)C(C)C)cc1` was run?
Answer: 7760 nM

Question: For `O=C(c1ccccc1)c1cccc(OC[C@H](O)CN2CCN(c3ccc(F)cc3)CC2)c1`, which EC50 is on record?
Answer: 575 nM

Question: Which EC50 does the source give for `Cc1cccc(N2CCN(C[C@@H](O)COc3cccc(C(=O)c4ccccc4)c3)CC2)c1C` here?
Answer: 174 nM

Question: `O=C(c1ccccc1)c1cccc(OC[C@H](O)CN2CCCCC2)c1` was tested. Which EC50 did it give?
Answer: 3550 nM

Question: For `Cc1ccccc1N1CCN(C[C@@H](O)COc2cccc(C(=O)c3ccccc3)c2)CC1`, which EC50 is on record?
Answer: 204 nM

Question: `Cc1cccc(N2CCN(C[C@@H](O)COc3ccc(C(=O)CCc4cccc5ccccc45)cc3)CC2)c1C` was tested. Which EC50 did it give?
Answer: 479 nM

Question: How did the EC50 turn out when `O=C(CCc1cccc2ccccc12)c1ccc(OC[C@H](O)CN2CCN(c3ccc(F)cc3)CC2)cc1` was run?
Answer: 550 nM

Question: With `Cc1ccccc1N1CCN(C[C@@H](O)COc2ccc(C(=O)CCc3cccc4ccccc34)cc2)CC1` as the molecule, how does the EC50 read?
Answer: 407 nM

Question: `Cc1cccc(N2CCN(C[C@@H](O)COc3cccc(C(=O)CCc4cccc5ccccc45)c3)CC2)c1C` was tested. Which EC50 did it give?
Answer: 263 nM

Question: With `CC(C)N(C[C@@H](O)COc1ccc(C(=O)c2ccccc2)cc1)C(C)C` as the molecule, how does the EC50 read?
Answer: 437 nM

Question: With `O=C(c1ccccc1)c1cccc(OC[C@H](O)CN2CCOCC2)c1` as the molecule, how does the EC50 read?
Answer: 11500 nM

Question: `O=C(CCc1cccc2ccccc12)c1ccc(OC[C@H](O)CN2CCCCC2)cc1` was tested. Which EC50 did it give?
Answer: 263 nM

Question: Which EC50 does the source give for `CC(C)N(C[C@@H](O)COc1ccc(C(=O)CCc2cccc3ccccc23)cc1)C(C)C` here?
Answer: 115 nM

Question: `O=C(CCc1cccc2ccccc12)c1cccc(OC[C@H](O)CN2CCOCC2)c1` was tested. Which EC50 did it give?
Answer: 631 nM

Question: How did the EC50 turn out when `O=C(CCc1cccc2ccccc12)c1cccc(OC[C@H](O)CN2CCCCC2)c1` was run?
Answer: 145 nM

Question: Which EC50 does the source give for `CC(C)N(C[C@@H](O)COc1cccc(C(=O)CCc2cccc3ccccc23)c1)C(C)C` here?
Answer: 58.9 nM

Question: Which EC50 does the source give for `Cc1c(C(=O)c2ccccc2)c(=O)n(-c2ccccc2)n1C[C@H](O)CN(C(C)C)C(C)C` here?
Answer: 15800 nM

Question: With `Cc1ccccc1N1CCN(C[C@@H](O)Cn2c(C)c(C(=O)c3ccccc3)c(=O)n2-c2ccccc2)CC1` as the molecule, how does the EC50 read?
Answer: 891 nM

Question: With `Cc1c(C(=O)c2ccccc2)c(=O)n(C)n1C[C@H](O)CN(C(C)C)C(C)C` as the molecule, how does the EC50 read?
Answer: 24000 nM

Question: Which EC50 does the source give for `Cc1nn(C)c(OC[C@H](O)CN(C(C)C)C(C)C)c1C(=O)c1ccccc1` here?
Answer: 1200 nM

Question: How did the EC50 turn out when `Cc1c([C@H](O)c2ccccc2)c(=O)n(-c2ccccc2)n1C[C@H](O)CN(C(C)C)C(C)C` was run?
Answer: 24000 nM

Question: For `CCC/N=C(/CCc1ccccc1)[C@H]1C(=O)N(c2ccccc2)N=C1C`, which EC50 is on record?
Answer: 3720 nM

Question: `CCCNC[C@@H](O)Cn1c(C)c(C(=O)CCc2ccccc2)c(=O)n1-c1ccccc1` was tested. Which EC50 did it give?
Answer: 6310 nM

Question: With `CCCNC[C@@H](O)Cn1c(C)c(C(=O)c2ccccc2)c(=O)n1-c1ccccc1` as the molecule, how does the EC50 read?
Answer: 186000 nM

Question: `Cc1c(C(=O)CCc2ccccc2)c(=O)n(-c2ccccc2)n1C[C@H](O)CNC(C)C` was tested. Which EC50 did it give?
Answer: 11700 nM

Question: Which EC50 does the source give for `Cc1c(C(=O)CCc2ccccc2)c(=O)n(-c2ccccc2)n1C[C@H](O)CNC(C)(C)C` here?
Answer: 7760 nM

Question: With `CCCCNC[C@@H](O)Cn1c(C)c(C(=O)CCc2ccccc2)c(=O)n1-c1ccccc1` as the molecule, how does the EC50 read?
Answer: 2690 nM

Question: `Cc1c(C(=O)c2cccs2)c(=O)n(-c2ccccc2)n1C[C@H](O)CNC(C)(C)C` was tested. Which EC50 did it give?
Answer: 72400 nM

Question: Which EC50 does the source give for `Cc1c(C(=O)c2cccs2)c(=O)n(-c2ccccc2)n1C[C@H](O)CNC(C)C` here?
Answer: 123000 nM

Question: `Cc1c(C(=O)c2ccccc2)c(=O)n(-c2ccccc2)n1C[C@H](O)CNC(C)C` was tested. Which EC50 did it give?
Answer: 83200 nM

Question: `Cc1c(C(=O)c2ccccc2)c(=O)n(-c2ccccc2)n1C[C@H](O)CNC(C)(C)C` was tested. Which EC50 did it give?
Answer: 81300 nM

Question: How did the EC50 turn out when `CCCNC[C@@H](O)Cn1c(C)c(C(=O)c2cccs2)c(=O)n1-c1ccccc1` was run?
Answer: 95500 nM

Question: For `CCCNC[C@@H](O)COc1ccsc1C(=O)CCc1ccccc1`, which EC50 is on record?
Answer: 813 nM

Question: With `CN1CCO[C@@H]2[C@@H]1c1cc(C#N)ccc1OC2(C)C` as the molecule, how does the EC50 read?
Answer: 61700 nM

Question: Which EC50 does the source give for `CC1(C)Oc2ccc(C#N)cc2[C@H]2[C@H]1OCCN2Cc1ccccc1` here?
Answer: 19500 nM

Question: How did the EC50 turn out when `CN(CCO)[C@H]1c2cc(C#N)ccc2OC(C)(C)[C@@H]1O` was run?
Answer: 97700 nM

Question: How did the EC50 turn out when `CC1(C)Oc2ccc(C#N)cc2[C@H](N(CCO)Cc2ccccc2)[C@H]1O` was run?
Answer: 5370 nM

Question: For `CC(C)[C@H](C(=O)OC(C)(C)C)N(C)[C@H]1c2cc(C#N)ccc2OC(C)(C)[C@@H]1O`, which EC50 is on record?
Answer: 977 nM

Question: With `CC(C)[C@@H]1CO[C@@H]2[C@@H](N1)c1cc(C#N)ccc1OC2(C)C` as the molecule, how does the EC50 read?
Answer: 49000 nM

Question: Which EC50 does the source give for `COc1ccccc1N1CCN([C@H]2c3ccccc3N(C(=O)c3ccc(C)cc3)[C@H](C)[C@@H]2O)CC1` here?
Answer: 3550 nM

Question: How did the EC50 turn out when `CCN(CCO)[C@@H]1c2ccccc2N(C(=O)c2ccc(C)cc2)[C@H](C)[C@@H]1O` was run?
Answer: 9120 nM

Question: `Cc1ccc(C(=O)N2c3ccccc3[C@@H](N(CCO)Cc3ccccc3)[C@@H](O)[C@H]2C)cc1` was tested. Which EC50 did it give?
Answer: 1380 nM

Question: How did the EC50 turn out when `Cc1ccc(C(=O)N2c3ccccc3[C@H](NCc3ccccc3)[C@@H](O)[C@H]2C)cc1` was run?
Answer: 3240 nM

Question: How did the EC50 turn out when `Cc1ccc(C(=O)N2c3ccccc3[C@H](N3CCN(Cc4ccccc4)CC3)[C@@H](O)[C@H]2C)cc1` was run?
Answer: 427 nM

Question: How did the EC50 turn out when `Cc1ccc(C(=O)N2c3ccccc3[C@@H](N3CCCC3)[C@@H](O)[C@H]2C)cc1` was run?
Answer: 7940 nM

Question: `Cc1ccc(C(=O)O[C@@H]2[C@H](N3CCCC3)c3ccccc3N[C@@H]2C)cc1` was tested. Which EC50 did it give?
Answer: 4680 nM

Question: With `CCN(CC)CCC[C@H](C)N[C@@H]1c2ccccc2N(C(=O)c2ccc(C)cc2)[C@H](C)[C@@H]1O` as the molecule, how does the EC50 read?
Answer: 2690 nM

Question: `CCN(CC)CCC[C@H](C)N[C@@H]1c2ccccc2N[C@H](C)[C@@H]1OC(=O)c1ccc(C)cc1` was tested. Which EC50 did it give?
Answer: 331 nM

Question: With `CC(C)[C@H](N[C@H]1c2cc(C#N)ccc2OC(C)(C)[C@@H]1O)C(=O)OC(C)(C)C` as the molecule, how does the EC50 read?
Answer: 1780 nM

Question: `CCc1ccc(N2C(=O)c3ccccc3N[C@H]2c2ccc(OCC(C)C)cc2)cc1` was tested. Which EC50 did it give?
Answer: 1200 nM

Question: How did the EC50 turn out when `CCOc1ccc(N2C(=O)c3ccccc3N[C@H]2c2ccc(N(C)C)cc2)cc1` was run?
Answer: 25100 nM

Question: How did the EC50 turn out when `COc1ccc([C@@H]2Nc3ccccc3C(=O)N2c2ccc(NC(C)=O)cc2)cc1` was run?
Answer: 20900 nM

Question: Which EC50 does the source give for `COc1ccc([C@@H]2Nc3ccccc3C(=O)N2c2ccc(Oc3ccccc3)cc2)cc1` here?
Answer: 1000 nM

Question: `CC[C@H](C)c1ccc(N2C(=O)c3ccccc3N[C@H]2c2ccc(OC)cc2)cc1` was tested. Which EC50 did it give?
Answer: 759 nM

Question: With `CC[C@H](C)c1ccc(N2C(=O)c3ccccc3N[C@H]2c2ccc(C(C)C)cc2)cc1` as the molecule, how does the EC50 read?
Answer: 288 nM

Question: Which EC50 does the source give for `CC(C)(C)c1ccc(N2C(=O)c3ccccc3N[C@H]2c2ccc3c(c2)OCO3)cc1` here?
Answer: 741 nM

Question: How did the EC50 turn out when `CCOc1ccccc1NC(=O)C1=C(C)NC(=S)N[C@@H]1c1cccs1` was run?
Answer: 8710 nM

Question: `CC(C)(C)OC(=O)CN(Cc1ccccc1)[C@H]1c2cc(C#N)ccc2OC(C)(C)[C@@H]1O` was tested. Which EC50 did it give?
Answer: 2000 nM

Question: With `CC1(C)Oc2ccc(C#N)cc2[C@H](N2CCN(Cc3ccccc3)CC2)[C@H]1O` as the molecule, how does the EC50 read?
Answer: 851 nM

Question: How did the EC50 turn out when `CC(C)(C)OC(=O)CN[C@H]1c2cc(C#N)ccc2OC(C)(C)[C@@H]1O` was run?
Answer: 46800 nM

From ChEMBL document CHEMBL2449286, “Structure-activity data for a series of P-glycoprotein inhibitors (Supplementary Data to CHEMBL1142990)”
